system: HUH-7; test: HCC cell proliferation inhibition, SRB method; assay type: cell-based; conditions: Homo sapiens, 72 hours
Procedure: (§1) The inhibitory activities of the compounds of the examples on cell proliferation in vitro were tested using five hepatocellular carcinoma cell lines: Hep3B, Huh7, JHH-7, SK-hep-1, SNU423. The above cells were all from ATCC (American Type Culture Collection). Among them, Hep3B, Huh-7, JHH-7 these three cell lines all have FGF19 gene amplification (increased copy number) and increased mRNA expression level, as well as high level expression of FGFR4 and KLB gene mRNA; SK-hep-1, SNU423 cell lines have no FGF19 gene amplification and the expression level of FGF19 mRNA was very low (Barretina J, Caponigro G, et al. Nature 2012; 483: 603-7.).
(§2) Cell proliferation was measured using the SRB (Sulforhodamine-B, sulforhodamine B) method. The cells were cultured to a cell fusion of more than 90% and then trypsinized. After counting, the cells were inoculated into 96-well plates at 6000 cells/well. After adherent culture overnight, the test compound was dissolved in DMSO and diluted with complete medium, added to the culture wells to form a 5-fold dilution of 10 concentration gradients from 10 μM. The cells were incubated for further 72 hours, 50 μl of 50% trichloroacetic acid was added to each well and fixed at 4° C. for 1 hour. The trichloroacetic acid in each well was discarded and washed 5 times with 300 μl of double distilled water. After drying at room temperature, 50 μl of 0.4% SRB dye solution (1% acetic acid/0.4% SRB) was added to each well to react for 15 min. The dye solution of each well was discarded, washed 6-7 times with 1% acetic acid, and dried at room temperature. 200 μl of 10 mM Tris solution (pH=10.5) was added to each well and shaken until the solution was clear. The absorbance at 490 nm of each well was measured by a microplate reader. The reading of the wells where the concentration of the test compound was 0 was used as a control, and fitted with Origin 7.5 software, the IC50 value (nM) of the test substance for inhibiting cell proliferation was calculated.
(§3) The antitumor cell proliferation activities of the compounds of the present invention were measured by the above test, and the measured IC50 (nM) values are shown in Table 2.

| IC50 [nM] | Compound |
| --- | --- |
| 2.8 | [2H]C([2H])([2H])N1CCN(Cc2cc3c(nc2C=O)N(C(=O)Nc2cc(NCCC#C)c(C#N)cn2)CCC3)C(=O)C1 [Compound 4] |
| 4.9 | C#CCCCNc1cc(NC(=O)N2CCCc3cc(CN4CCN(C)CC4=O)c(C=O)nc32)ncc1C#N [Compound 6] |
| 5.7 | C#CCCNc1cc(NC(=O)N2CCCc3cc(CN4CCOCC4=O)c(C=O)nc32)ncc1C#N [Compound 3] |

system: Hep3B; test: HCC cell proliferation inhibition, SRB method; assay type: cell-based; conditions: Homo sapiens, 72 hours
Procedure: as §1, §2, §3

| IC50 [nM] | Compound |
| --- | --- |
| 0.36 | [2H]C([2H])([2H])N1CCN(Cc2cc3c(nc2C=O)N(C(=O)Nc2cc(NCCC#C)c(C#N)cn2)CCC3)C(=O)C1 [Compound 4] |
| 0.53 | C#CCCCNc1cc(NC(=O)N2CCCc3cc(CN4CCN(C)CC4=O)c(C=O)nc32)ncc1C#N [Compound 6] |
| 0.62 | C#CCCNc1cc(NC(=O)N2CCCc3cc(CN4CCOCC4=O)c(C=O)nc32)ncc1C#N [Compound 3] |

system: SNU387; test: HCC cell proliferation inhibition, SRB method; assay type: cell-based; conditions: Homo sapiens, SNU-387, 72 hours
Procedure: [Worded in the source for another cell line; this cell line is reported under the same test.] as §1, §2, §3

| IC50 [nM] | Compound |
| --- | --- |
| > 1000 | [2H]C([2H])([2H])N1CCN(Cc2cc3c(nc2C=O)N(C(=O)Nc2cc(NCCC#C)c(C#N)cn2)CCC3)C(=O)C1 [Compound 4] |
| > 1000 | C#CCCCNc1cc(NC(=O)N2CCCc3cc(CN4CCN(C)CC4=O)c(C=O)nc32)ncc1C#N [Compound 6] |
| > 1000 | C#CCCNc1cc(NC(=O)N2CCCc3cc(CN4CCOCC4=O)c(C=O)nc32)ncc1C#N [Compound 3] |

molecular target: T1, FGFR2 kinase recombinant protein (Homo sapiens, UniProt P21802); test: Inhibition of FGFR kinase activity, ADP-Glo method; assay type: biochemical; conditions: 30 min preincubation
T1 construct: purchased Promega
T1 sequence (P21802 22-821): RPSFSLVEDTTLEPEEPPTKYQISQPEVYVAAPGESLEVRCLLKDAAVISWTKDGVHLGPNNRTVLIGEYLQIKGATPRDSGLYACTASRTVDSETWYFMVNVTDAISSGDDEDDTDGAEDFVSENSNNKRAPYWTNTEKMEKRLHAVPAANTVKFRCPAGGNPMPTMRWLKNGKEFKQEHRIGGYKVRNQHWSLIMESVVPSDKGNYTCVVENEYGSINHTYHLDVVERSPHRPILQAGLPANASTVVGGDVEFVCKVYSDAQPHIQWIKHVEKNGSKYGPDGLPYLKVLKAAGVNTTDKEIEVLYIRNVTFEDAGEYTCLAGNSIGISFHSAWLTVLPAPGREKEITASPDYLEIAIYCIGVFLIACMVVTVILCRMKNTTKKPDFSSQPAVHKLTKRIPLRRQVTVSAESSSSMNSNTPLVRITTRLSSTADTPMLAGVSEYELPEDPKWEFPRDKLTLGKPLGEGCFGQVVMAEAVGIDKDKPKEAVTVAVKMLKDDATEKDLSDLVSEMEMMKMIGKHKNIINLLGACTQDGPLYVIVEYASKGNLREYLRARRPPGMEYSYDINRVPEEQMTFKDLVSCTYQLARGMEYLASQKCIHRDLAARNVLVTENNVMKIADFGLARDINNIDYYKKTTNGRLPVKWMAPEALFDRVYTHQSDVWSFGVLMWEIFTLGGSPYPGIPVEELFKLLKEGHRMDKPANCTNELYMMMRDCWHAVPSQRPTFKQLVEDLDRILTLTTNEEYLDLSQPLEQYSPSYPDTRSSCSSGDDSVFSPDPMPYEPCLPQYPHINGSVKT
Procedure: (§4) The inhibitory activities of the test substances on FGFR kinase were determined by the ADP-Glo method. The human FGFR1, FGFR2 and FGFR4 kinase recombinant proteins and kinase activity assay kit ADP-Glo™ were purchased from Promega, and the FGFR3 kinase recombinant protein was purchased from BPS Bioscience. The test substance, which was diluted gradiently from 1000 nM, was incubated with the FGFR1, FGFR2, FGFR3 or FGFR4 kinase recombinant protein for 30 minutes, reacted with the substrate in the presence of ATP, and ADP-Glo™ detected the generated ADP and further produced chemiluminescence signals. Microplate reader (Perkin Elmer, Envision) were used to determine the reading for each well, and the origin 7.5 was used to calculate and analyze the IC50, i.e. the concentration at which 50% inhibition occurred.
(§5) The inhibition of the compounds of the present invention on FGFR1-4 kinase activity was measured by the above test, and the measured IC50 (nM) values are shown in Table 1.

| IC50 [nM] | Compound |
| --- | --- |
| > 1000 | [2H]C([2H])([2H])N1CCN(Cc2cc3c(nc2C=O)N(C(=O)Nc2cc(NCCC#C)c(C#N)cn2)CCC3)C(=O)C1 [Compound 4] |
| > 1000 | C#CCCCNc1cc(NC(=O)N2CCCc3cc(CN4CCN(C)CC4=O)c(C=O)nc32)ncc1C#N [Compound 6] |
| > 1000 | C#CCCNc1cc(NC(=O)N2CCCc3cc(CN4CCOCC4=O)c(C=O)nc32)ncc1C#N [Compound 3] |

molecular target: T2, FGFR3 kinase recombinant protein (Homo sapiens, UniProt P22607); test: Inhibition of FGFR kinase activity, ADP-Glo method; assay type: biochemical; conditions: 30 min preincubation
T2 construct: purchased BPS Bioscience
T2 sequence (P22607 23-806): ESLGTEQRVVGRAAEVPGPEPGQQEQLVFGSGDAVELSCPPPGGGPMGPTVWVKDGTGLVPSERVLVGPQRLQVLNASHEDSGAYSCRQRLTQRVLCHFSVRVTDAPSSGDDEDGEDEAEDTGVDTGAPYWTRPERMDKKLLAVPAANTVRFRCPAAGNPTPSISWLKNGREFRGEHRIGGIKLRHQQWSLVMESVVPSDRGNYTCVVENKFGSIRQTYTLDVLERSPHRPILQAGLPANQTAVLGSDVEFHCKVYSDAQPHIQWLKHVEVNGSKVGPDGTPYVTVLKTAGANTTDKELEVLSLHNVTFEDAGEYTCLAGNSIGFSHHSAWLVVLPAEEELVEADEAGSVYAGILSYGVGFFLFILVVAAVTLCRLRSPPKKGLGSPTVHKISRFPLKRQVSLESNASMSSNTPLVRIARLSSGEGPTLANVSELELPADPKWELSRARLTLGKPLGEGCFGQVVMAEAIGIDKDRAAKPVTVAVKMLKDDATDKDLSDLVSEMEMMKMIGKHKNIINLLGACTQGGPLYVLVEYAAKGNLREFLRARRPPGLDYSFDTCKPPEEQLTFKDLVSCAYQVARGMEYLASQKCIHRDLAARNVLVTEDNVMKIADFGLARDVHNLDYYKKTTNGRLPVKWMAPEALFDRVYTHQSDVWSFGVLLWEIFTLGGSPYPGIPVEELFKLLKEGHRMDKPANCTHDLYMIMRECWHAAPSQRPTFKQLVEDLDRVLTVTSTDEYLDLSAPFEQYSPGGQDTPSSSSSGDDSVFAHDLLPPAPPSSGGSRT
Procedure: as §4, §5

| IC50 [nM] | Compound |
| --- | --- |
| > 1000 | [2H]C([2H])([2H])N1CCN(Cc2cc3c(nc2C=O)N(C(=O)Nc2cc(NCCC#C)c(C#N)cn2)CCC3)C(=O)C1 [Compound 4] |
| > 1000 | C#CCCCNc1cc(NC(=O)N2CCCc3cc(CN4CCN(C)CC4=O)c(C=O)nc32)ncc1C#N [Compound 6] |
| > 1000 | C#CCCNc1cc(NC(=O)N2CCCc3cc(CN4CCOCC4=O)c(C=O)nc32)ncc1C#N [Compound 3] |

molecular target: T3, FGFR4 kinase recombinant protein (Homo sapiens, UniProt P22455); test: Inhibition of FGFR kinase activity, ADP-Glo method; assay type: biochemical; conditions: 30 min preincubation
T3 construct: purchased Promega
T3 sequence (P22455 22-802): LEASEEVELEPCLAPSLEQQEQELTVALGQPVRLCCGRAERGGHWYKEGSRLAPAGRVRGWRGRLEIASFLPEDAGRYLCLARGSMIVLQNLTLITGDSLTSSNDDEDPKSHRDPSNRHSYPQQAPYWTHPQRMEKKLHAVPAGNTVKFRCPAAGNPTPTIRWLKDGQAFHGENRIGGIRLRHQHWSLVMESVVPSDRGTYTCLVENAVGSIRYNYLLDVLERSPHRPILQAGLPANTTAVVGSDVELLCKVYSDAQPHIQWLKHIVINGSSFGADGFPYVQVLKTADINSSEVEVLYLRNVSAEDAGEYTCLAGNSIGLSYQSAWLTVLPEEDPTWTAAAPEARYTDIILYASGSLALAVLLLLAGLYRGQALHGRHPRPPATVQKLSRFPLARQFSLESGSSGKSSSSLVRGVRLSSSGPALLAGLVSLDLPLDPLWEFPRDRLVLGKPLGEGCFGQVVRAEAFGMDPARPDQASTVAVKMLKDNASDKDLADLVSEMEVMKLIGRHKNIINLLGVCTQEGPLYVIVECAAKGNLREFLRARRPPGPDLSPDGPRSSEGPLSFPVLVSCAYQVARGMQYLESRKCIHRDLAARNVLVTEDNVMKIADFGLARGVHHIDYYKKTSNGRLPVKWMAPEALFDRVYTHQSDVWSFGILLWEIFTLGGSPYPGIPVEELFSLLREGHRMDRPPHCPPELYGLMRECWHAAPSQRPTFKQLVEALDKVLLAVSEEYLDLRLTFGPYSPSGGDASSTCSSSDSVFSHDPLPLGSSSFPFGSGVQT
Procedure: as §4, §5

| IC50 [nM] | Compound |
| --- | --- |
| 0.37 | [2H]C([2H])([2H])N1CCN(Cc2cc3c(nc2C=O)N(C(=O)Nc2cc(NCCC#C)c(C#N)cn2)CCC3)C(=O)C1 [Compound 4] |
| 0.59 | C#CCCCNc1cc(NC(=O)N2CCCc3cc(CN4CCN(C)CC4=O)c(C=O)nc32)ncc1C#N [Compound 6] |
| 0.62 | C#CCCNc1cc(NC(=O)N2CCCc3cc(CN4CCOCC4=O)c(C=O)nc32)ncc1C#N [Compound 3] |

molecular target: T4, FGFR1 kinase recombinant protein (Homo sapiens, UniProt P11362); test: Inhibition of FGFR kinase activity, ADP-Glo method; assay type: biochemical; conditions: 30 min preincubation
T4 construct: purchased Promega
T4 sequence (P11362 22-822): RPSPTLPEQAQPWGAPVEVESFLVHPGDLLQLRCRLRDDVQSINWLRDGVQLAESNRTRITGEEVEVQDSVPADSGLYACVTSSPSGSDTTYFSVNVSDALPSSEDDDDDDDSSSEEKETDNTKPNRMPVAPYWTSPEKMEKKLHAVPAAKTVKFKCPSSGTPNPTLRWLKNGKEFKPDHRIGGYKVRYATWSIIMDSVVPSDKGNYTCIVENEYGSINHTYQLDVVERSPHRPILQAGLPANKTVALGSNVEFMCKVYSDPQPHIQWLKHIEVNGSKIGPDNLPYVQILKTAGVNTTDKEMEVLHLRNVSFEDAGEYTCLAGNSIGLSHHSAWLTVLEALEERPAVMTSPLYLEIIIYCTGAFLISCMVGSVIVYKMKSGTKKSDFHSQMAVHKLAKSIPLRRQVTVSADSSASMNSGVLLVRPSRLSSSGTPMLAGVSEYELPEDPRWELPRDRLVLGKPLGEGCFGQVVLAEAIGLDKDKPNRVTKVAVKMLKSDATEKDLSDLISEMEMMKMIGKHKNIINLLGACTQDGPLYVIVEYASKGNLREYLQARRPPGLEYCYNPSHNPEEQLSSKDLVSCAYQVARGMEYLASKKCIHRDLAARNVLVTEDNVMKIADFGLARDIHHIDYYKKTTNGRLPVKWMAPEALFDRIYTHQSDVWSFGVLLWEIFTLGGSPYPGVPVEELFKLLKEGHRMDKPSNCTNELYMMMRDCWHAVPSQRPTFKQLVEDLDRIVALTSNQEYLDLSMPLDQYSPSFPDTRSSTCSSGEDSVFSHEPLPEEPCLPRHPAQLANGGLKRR
Procedure: as §4, §5

| IC50 [nM] | Compound |
| --- | --- |
| > 1000 | [2H]C([2H])([2H])N1CCN(Cc2cc3c(nc2C=O)N(C(=O)Nc2cc(NCCC#C)c(C#N)cn2)CCC3)C(=O)C1 [Compound 4] |
| > 1000 | C#CCCCNc1cc(NC(=O)N2CCCc3cc(CN4CCN(C)CC4=O)c(C=O)nc32)ncc1C#N [Compound 6] |
| > 1000 | C#CCCNc1cc(NC(=O)N2CCCc3cc(CN4CCOCC4=O)c(C=O)nc32)ncc1C#N [Compound 3] |

system: HCC cells with FGF19 gene amplification; test: HCC cell line panel proliferation, selectivity conclusion; assay type: cell-based; conditions: conclusion from Table 2
Procedure: as §1, §2

| Compound | selective inhibitory effect on HCC cells with FGF19 gene amplification |
| --- | --- |
| [2H]C([2H])([2H])N1CCN(Cc2cc3c(nc2C=O)N(C(=O)Nc2cc(NCCC#C)c(C#N)cn2)CCC3)C(=O)C1 [Compound 4] | significant selective inhibitory effect |
| C#CCCCNc1cc(NC(=O)N2CCCc3cc(CN4CCN(C)CC4=O)c(C=O)nc32)ncc1C#N [Compound 6] | significant selective inhibitory effect |
| C#CCCNc1cc(NC(=O)N2CCCc3cc(CN4CCOCC4=O)c(C=O)nc32)ncc1C#N [Compound 3] | significant selective inhibitory effect |

Reference: patent publication US11046684B2, “Compound for selectively inhibiting kinase and use thereof” (SHANGHAI ZHEYE BIOTECHNOLOGY LIMITED-LIABILITY COMPANY, priority 2017, dated 2021)
